Values quoted from earlier work as cited in patent publication US20230157281A1, “COMPOSITIONS AND METHODS FOR REPELLING ANIMALS FROM AN OBJECT” (Texas Tech University System, priority 2020, published 2023).
Read-outs that look alike come from different tables or passages of the source.

Assays:
cats [1] = tested on: cats
cats [2] = conditions: preliminary data from another study; dosage not detailed

Row | Compound | use of litter box (cats [1]; added to the litter at 50 μg/kg of litter) | use of litter box (cats [1]; substance used in litter, result in words) | interest shown by male and female cats (cats [2]) | use of litter box (cats [1]; substance used in litter, result in words, listed as I-felinine)
1 | CC(C)(S)CCO [MMB, 3-Mercapto-3-Methyl Butanol] | did not alter the use of litterbox | did not increase the use of litter box | showed interests | 
2 | CC(C)(CCO)SC[C@H](N)C(=O)O [felinine] |  |  |  | attract cats to eliminate in the litter box
